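Step 1: Grow cells in 96-well plates. Step 2: Expose to compound for 48 hours at 5 concentrations. Step 3: Interpolate endpoints linearly; if unreached, use highest concentration. TGI denotes the concentration required for complete inhibition of growth.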
Experiments:
Test in all cases: DTP human tumour cell line panel, 48 h
U251 CNS = system: U251 CNS
UACC-62 melanoma = system: UACC-62 melanoma
RXF 393 renal = system: RXF 393 renal
HCT-15 colon = system: HCT-15 colon
RPMI-8226 leukemia = system: RPMI-8226 leukemia
BT-549 breast = system: BT-549 breast
HT29 colon = system: HT29 colon
OVCAR-5 ovarian = system: OVCAR-5 ovarian
MDA-MB-231 breast = system: MDA-MB-231 breast
SNB-19 CNS = system: SNB-19 CNS
NCI-H23 lung = system: NCI-H23 lung
EKVX NSCLC = system: EKVX NSCLC
IGROV1 ovarian = system: IGROV1 ovarian
COLO 205 colon = system: COLO 205 colon
NCI-H226 lung = system: NCI-H226 lung
SNB-75 CNS = system: SNB-75 CNS
DU-145 prostate = system: DU-145 prostate
OVCAR-3 ovarian = system: OVCAR-3 ovarian
CAKI-1 renal = system: CAKI-1 renal

| Structure (SMILES) | TGI (U251 CNS) [µM] | TGI (UACC-62 melanoma) [µM] | TGI (RXF 393 renal) [µM] | TGI (HCT-15 colon) [µM] | TGI (RPMI-8226 leukemia) [µM] | TGI (BT-549 breast) [µM] | TGI (HT29 colon) [µM] | TGI (OVCAR-5 ovarian) [µM] | TGI (MDA-MB-231 breast) [µM] | TGI (SNB-19 CNS) [µM] | TGI (NCI-H23 lung) [µM] | TGI (EKVX NSCLC) [µM] | TGI (IGROV1 ovarian) [µM] | TGI (COLO 205 colon) [µM] | TGI (NCI-H226 lung) [µM] | TGI (SNB-75 CNS) [µM] | TGI (DU-145 prostate) [µM] | TGI (OVCAR-3 ovarian) [µM] | TGI (CAKI-1 renal) [µM] |
| --- | --- | --- | --- | --- | --- | --- | --- | --- | --- | --- | --- | --- | --- | --- | --- | --- | --- | --- | --- |
| CCOC(=O)c1c(N)sc2c1C(C(=O)OCC)CC2 (configuration not stated) | > 100 | > 100 | > 100 | > 100 | > 100 | > 100 | > 100 | > 100 | > 100 | > 100 | > 100 | > 100 | > 100 | > 100 | > 100 | > 100 | – | – | – |
| COc1ccc(/C=C2\NC(=S)N(CN3CCCCC3)C2=O)cc1 | > 100 | > 100 | – | > 100 | > 100 | – | 41 | > 100 | > 100 | > 100 | > 100 | > 100 | > 100 | 85.6 | > 100 | 79 | > 100 | > 100 | – |
| CCOC(=O)c1c(N2CCCC2)nsc1Nc1ccc(F)cc1 | > 100 | > 100 | 31.9 | > 100 | > 100 | – | 68 | 89.7 | > 100 | > 100 | > 100 | > 100 | > 100 | > 100 | > 100 | – | > 100 | > 100 | > 100 |
| Cc1nc2cccc(F)c2c(=O)n1C1CCCCNC1=O (configuration not stated) | > 10 | > 10 | > 10 | > 10 | > 10 | – | > 10 | > 10 | > 10 | > 10 | > 10 | > 10 | > 10 | > 10 | > 10 | > 10 | > 10 | > 10 | > 10 |
| CN(C)CCCNC(=O)CCNC(=O)c1cc(NC(=O)c2cc(NC(=O)c3cc(NC(=O)c4nc(NC(=O)CCCNC(=O)c5cc(NC(=O)c6cc(NC(=O)c7cc(NC(=O)c8nccn8C)cn7C)cn6C)cn5C)cn4C)cn3C)cn2C)cn1C | > 100 | – | > 100 | > 100 | > 100 | – | > 100 | > 100 | > 100 | > 100 | > 100 | > 100 | > 100 | > 100 | > 100 | > 100 | > 100 | > 100 | > 100 |
| CCOP(=O)(OCC)C1CC(O)C(=O)N1 (configuration not stated) | > 100 | > 100 | – | > 100 | > 100 | – | > 100 | > 100 | > 100 | > 100 | > 100 | > 100 | > 100 | > 100 | > 100 | > 100 | > 100 | > 100 | – |
| COC(O)C(=O)c1c2c(cc3c1CC1(Cc4cc5c(cc4C1)CCC5)C3)CCC2 (configuration not stated) | 25.7 | – | 29 | 39.8 | 30 | – | 22.7 | 33.5 | 29.2 | 36.1 | 33.1 | 41.1 | 26 | – | – | 31.6 | 33.7 | 28.9 | 37.4 |
| CCCC1(NC(=O)C(F)(F)F)CC(OC)OC2COC(c3ccccc3)OC21 (configuration not stated) | > 100 | > 100 | > 100 | > 100 | – | > 100 | – | > 100 | > 100 | > 100 | > 100 | > 100 | > 100 | 48.6 | > 100 | > 100 | > 100 | > 100 | > 100 |
| CCNCCNc1c2ccccc2nc2ccccc12 | – | 3.26 | 3.31 | 5.83 | – | 10.2 | > 100 | 7.62 | 3.02 | 4.69 | 3.36 | 21.9 | 9.82 | 3.42 | – | 3.52 | 7.42 | 24.5 | 3.48 |
| C=CCOc1ccc(/C(N=Nc2ccc(Cl)cc2)=N/NC(=O)c2ccccc2)cc1OC | > 100 | > 100 | – | > 100 | – | 70.3 | > 100 | > 100 | > 100 | > 100 | > 100 | > 100 | > 100 | > 100 | > 100 | > 100 | > 100 | > 100 | > 100 |
| O=C(c1cccc2ccccc12)C1(Br)S(=O)(=O)OCCOS1(=O)=O | > 100 | – | – | > 100 | > 100 | > 100 | > 100 | > 100 | > 100 | > 100 | > 100 | > 100 | – | > 100 | – | – | > 100 | > 100 | > 100 |
| NC(=O)NNc1nc2ccccc2c(=O)n1NC(=O)C(=O)Nc1ccc(Cl)cc1Cl | > 100 | > 100 | > 100 | > 100 | > 100 | > 100 | > 100 | > 100 | > 100 | > 100 | > 100 | > 100 | > 100 | – | > 100 | > 100 | – | > 100 | > 100 |
| O=C(CCCN1CCC2(CC1)OC(=O)N(c1ccccc1)C2=O)c1ccccc1 | > 100 | > 100 | > 100 | > 100 | > 100 | – | > 100 | > 100 | 93.4 | > 100 | > 100 | > 100 | > 100 | > 100 | > 100 | > 100 | > 100 | > 100 | > 100 |
| C[n+]1c2ccccc2c(C(=O)Nc2ccc(S(=O)(=O)Nc3ccnn3-c3ccccc3)cc2)c2ccccc21 | > 100 | > 100 | – | > 100 | > 100 | > 100 | > 100 | > 100 | > 100 | > 100 | > 100 | > 100 | > 100 | > 100 | > 100 | > 100 | > 100 | > 100 | > 100 |
